For one test, the system named is growth hormone secretion. In words: GHRP induced growth hormone secretion, intravenous administration (Rat IV). It is filed as in vivo. The note with it: serum GH 10 min after injection; for RAT IV ED50: iv injection. The protocol:
Immature weanling female Sprague Dawley rats were purchased from Charles River Labs (Portage, […].) and group housed with water and food available ad libitum. When the rats were 24-30 days old (weighing 50-90 g) they were anesthetized with pentobarbitone (4 mg in 0.5 ml, approximately 60 mg/kg) given by intraperitoneal injection. The rats were then placed briefly on a heated pad, to distend their tail veins, and given an intravenous tail vein injection of the peptides 20 minutes after receiving the anesthetic. The intravenous injection was of 0.1 ml using a 1 ml syringe. The injections contained graded doses of peptides or the vehicle (vehicle for all peptides given intravenously was a buffer of 20 mM sodium acetate, 45 g/l mannitol, pH 5.0). Ten minutes after the intravenous injection blood was taken by cardiac puncture, using a 3 ml syringe, and the rats were then sacrificed.
The blood was then clotted on ice, centrifuged, serum decanted and frozen for subsequent analysis using the rat GH ELISA described elsewhere in the application. For the rat GH ELISA the serum was diluted 1:50 or 1:250, depending on the expected serum GH concentrations achieved, and assayed in duplicate.

In a further test the target is rat pituitary cells (Rattus norvegicus, UniProt O08725). The note with it: GH release, 15 min incubation. The protocol:
Pituitaries from ten rats were removed, the posterior pituitary discarded and the anterior pituitary placed in Hanks' Balanced Salt Solution (HBSS: without calcium chloride, w/o magnesium chloride, w/o magnesium sulfate; Gibco) containing 20 mM HEPES (Gibco) and 100 U/ml penicillin streptomycin (PS: JRH Biosciences). Under sterile conditions, pituitaries were rinsed twice then minced into small fragments with a razor blade. […] After the incubation, fragments were triturated to yield small clumps and single cells. The cells were centrifuged 1000× g for 5 min, resuspended, counted and plated at a final cell concentration of 100,000 cells/ml. Incubation media was DME low glucose media w/NaHCO3 (Gibco) containing 20 mM hepes, 100 U/ml PS and 10% FBS (Hyclone A-111-L). Cells were plated at 0.5 ml per well in 48 well plates (Falcon) and incubated at 37° C. in 5% C02 for three days. For challenges to determine release of other pituitary hormones cells were plated at 200,000 cells per ml with 2 ml per well of a Swell plate (Corning). Challenge: A (inip)bbFK-NH2 stock (or other GHRP) concentration of 1 mM was made in DMSO and diluted with warmed media approximately 30 min prior to use. The highest concentration of DMSO in media was 0.1%. Stock solutions (1 mM) of rat GHRH, somatostatin (Sigma) and GHRP antagonist HwkWfK were made fresh in media and diluted appropriately. The media used in all challenges and washing steps was DME low glucose with 20 mM Hepes, 100 U/ml PS, 10% FBS. Media was warmed to 37° C. and gassed by placing it into the incubator prior to challenge. On day three, the media was discarded and fresh media (approximately 1 ml) added for the first of three washes. After the last wash, the plate was placed back in the incubator for a 15 min pre-incubation. Then cells were washed 2× (with warmed and gassed media) and fresh 0.5 ml media were added for the second 15 min. pre-incubation. After the second pre-incubation cells were washed 2× as above and 0.5 ml of control and test solutions were added for a final 15 min incubation. After this incubation, the media were removed for subsequent GH ELISA. GH ELISA: A two-site ELISA was used to determine rat GH concentration in the media. […] After blocking and washing, standard (rat GH reference preparation: Parlow) and challenge media is diluted 1:20 prior to GH assay were added for a 1 hr room temperature incubation. STATISTICS: The mean for each group was determined and analyzed by one-way analysis of variance with a post-hoc Student-Newman-Keuls. Significance is defined as P<0.05. The EC50 was calculated using a 4-parameter curve-fit program (Kaleidagraph). Three to four independent EC50s were used to derive the mean and SEM. RIA of pituitary hormones: LH, FSH, TSH, and Prolactin were determined with commercially available kits from Amersham, and ACTH levels were determined by a RIA kit from ICN. CALCIUM FLUX EXPERIMENT: Pituitary cells were plated on fibronectin (Collaborative Research) coated two-chambered slide wells (Nunc). After four days in monolayer culture cells were rinsed three times with HBSS (Gibco) in 1% BSA and 15 mM HEPES and then incubated for 30 min at 37° C. with 5 μM Indo-1 AM (Molecular Probes, Eugene) in HBSS also containing 1% pluronic F127 (Molecular Probes). The cells were rinsed once and fresh media added for RT incubation. […] C^++ flux was imaged with a Meridian ACAS 570 using stage scanning at 21 second intervals.

Setting [1] is: read-out: PIT Cell EC50, Table VI, retroinverso compounds of formula V.
Where [2] appears, read: read-out: PIT Cell EC50, Table III, formula IV compounds.
[3] abbreviates: read-out: PIT Cell EC50, Table IV, formula III compounds.

pEC50: −log10 of the molar value. Like-named read-outs stand apart in the source and are kept apart here. Starred links: 1 amine or outer side, 2 acyl side, 3 side chain; linkers in the order of their positions; H or OH if unused. Non-standard residues stand in square brackets, D forms with d. Residues, ends and D or L forms follow the SMILES beside them. ξ: configuration not given here. *: point of attachment. dNMe2Nal = CN[C@H](Cc1ccc2ccccc2c1)C(=O)O; 2Nal = N[C@@H](Cc1ccc2ccccc2c1)C(=O)O; d2Nal = N[C@H](Cc1ccc2ccccc2c1)C(=O)O; Ethylenediamine = C(CN[*:2])N[*:1]; ξ2Nal = NC(Cc1ccc2ccccc2c1)C(=O)O; Isonicotinoyl = O=C(c1ccncc1)*; Phe(ol) = N[C@H](CO)Cc1ccccc1; Morpholide = C1CN(*)CCO1; Inp = O=C(O)C1CCNCC1; ξK = NCCCCC(N)C(=O)O; NHtBu = CC(C)(C)N*; Ava = NCCCCC(=O)O; GABA = NCCCC(=O)O A value given as a limit tells only on which side of the number the result lay.

rat pituitary cells, sequence (O08725 whole entry, the tested form may be a part): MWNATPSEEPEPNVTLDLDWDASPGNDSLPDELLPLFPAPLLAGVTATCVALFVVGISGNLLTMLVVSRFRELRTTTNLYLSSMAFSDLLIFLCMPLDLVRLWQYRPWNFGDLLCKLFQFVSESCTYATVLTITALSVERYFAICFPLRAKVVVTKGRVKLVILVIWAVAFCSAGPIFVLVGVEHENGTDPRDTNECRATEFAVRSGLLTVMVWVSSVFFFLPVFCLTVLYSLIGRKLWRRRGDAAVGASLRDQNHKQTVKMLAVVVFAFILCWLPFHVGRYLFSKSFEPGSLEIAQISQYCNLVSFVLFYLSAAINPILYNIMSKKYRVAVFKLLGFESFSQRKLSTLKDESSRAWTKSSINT

Usually pEC50 stands for the negative decadic logarithm of the EC50, by convention in mol/L. As for `C[C@H](NC(=O)[C@@H](Cc1ccc2ccccc2c1)NC(=O)[C@@H](C)N)C(=O)N[C@@H](Cc1c[nH]c2ccccc12)C(=O)N[C@H](Cc1ccccc1)C(=O)N[C@@H](CCCCN)C(N)=O` [GHRP 2, D Ala-D βNal-Ala-Trp-D Phe-Lys-NH2, reference compound] (H-[dA][d2Nal]AW[dF]K-NH2), the “Rat IV ED50” value in the test on growth hormone secretion (Table II, iv tail vein injection, anesthetized weanling female rats) was 0.35 µg. At rat pituitary cells (read-out: “Pit” Cell EC50, Table II, prior art compounds), the pEC50 was 9.00.
For the molecule `NCCCCNC(=O)[C@H](Cc1ccc2ccccc2c1)NC(=O)[C@H](Cc1ccc2ccccc2c1)NC(=O)[C@@H](Cc1ccccc1)NC(=O)CCCCN` [(Ava) f B B bam, (5-aminovaleryl)-DPhe-βNal-βNal-[N-(4-aminobutyl)] amide], the “RAT IV ED50” value with growth hormone secretion (Table VI) amounted to 100 µg. Moreover, the pEC50 at rat pituitary cells (setting [1]) was 7.66.
For `CN(C(=O)C(Cc1ccc2ccccc2c1)NC(=O)C1CCNCC1)[C@H](Cc1ccc2ccccc2c1)C(=O)N[C@@H](Cc1ccccc1)C(=O)NC(CCCCN)C(N)=O` (stereo partly drawn) [(inip) b nmb F K amide, (inip)-DβNal-(N-Me-DβNal)-Phe-Lys-amide] (H-[Inp][ξ2Nal][dNMe2Nal]F[ξK]-NH2), the “RAT IV ED50” value in the test with growth hormone secretion (Table III) came to 1 µg. Besides, on rat pituitary cells (setting [2]), the pEC50 was 9.70.
In the same order, the values of `NCCCC[C@H](NC(=O)[C@H](Cc1ccccc1)NC(=O)[C@@H](Cc1c[nH]c2ccccc12)NC(=O)[C@@H](Cc1ccc2ccccc2c1)NC(=O)[C@@H](N)Cc1c[nH]cn1)C(N)=O` [H b w F K amide] (H-H[d2Nal][dW]FK-NH2) are 4.2 µg and 8.17.
Consider `NCCCCC(=O)N[C@H](Cc1ccc2ccccc2c1)C(=O)N[C@H](Cc1ccc2ccccc2c1)C(=O)N[C@@H](Cc1ccccc1)C(=O)N[C@@H](CCCCN)C(=O)N[C@@H](Cc1ccc(O)cc1)C(N)=O` [(Ava) b b F K Y amide] (H-[Ava][d2Nal][d2Nal]FKY-NH2), for which, in the test on growth hormone secretion (Table III), the “RAT IV ED50” value is 20 µg. In addition, the negative logarithm of the EC50 (pEC50) on rat pituitary cells (setting [2]) is 7.87.
Turning to `CN(C(=O)CCCN)[C@H](Cc1ccc2ccccc2c1)C(=O)N[C@H](Cc1ccc2ccccc2c1)C(=O)N[C@@H](Cc1ccccc1)C(N)=O` [(Ab) nmb b F amide] (H-[GABA][dNMe2Nal][d2Nal]F-NH2), the “RAT IV ED50” value with growth hormone secretion (Table IV) came to 20 µg. Also, the pEC50 on rat pituitary cells (setting [3]) is 9.70.
In the case of `CN(C(=O)[C@@H](Cc1ccc2ccccc2c1)NC(=O)C1CCNCC1)[C@@H](CN)Cc1ccc2ccccc2c1` [(inip) b mbm], the “RAT IV ED50” value with growth hormone secretion (Table V) came out at 20 µg. Also, the negative logarithm of the EC50 (pEC50) at rat pituitary cells (read-out: PIT Cell EC50, Table V, formula II compounds) is 8.15.
For the molecule `NCCCC[C@H](NC(=O)[C@H](Cc1ccccc1)NC(=O)[C@@H](Cc1ccc2ccccc2c1)NC(=O)[C@@H](Cc1ccc2ccccc2c1)NC(=O)CN)C(N)=O` [G b b F K amide] (H-G[d2Nal][d2Nal]FK-NH2), the “RAT IV ED50” value in the test on growth hormone secretion (Table III) is 100 µg. Further, the pEC50 at rat pituitary cells (setting [2]) was 7.83.
In the same order, the values of `CC(C)(C)NC(=O)[C@H](Cc1ccccc1)NC(=O)[C@@H](Cc1ccc2ccccc2c1)NC(=O)[C@@H](Cc1ccc2ccccc2c1)NC(=O)C1CCNCC1` [(inip) b b F tbm] (H-[Inp][d2Nal][d2Nal]F-NHtBu) are 10 µg and 8.00.
In the case of `NCCCCNC(=O)[C@@H](Cc1ccc2ccccc2c1)NC(=O)[C@@H](Cc1ccc2ccccc2c1)NC(=O)C1CCNCC1` [(inip) b b bam, (inip)-DβNal-DβNal-[N-(4-aminobutyl)] amide], in the test on growth hormone secretion (Table IV), the “RAT IV ED50” value is 3.3 µg. For the same molecule, on rat pituitary cells (setting [3]), the pEC50 is 7.73.
With `NCCCNC(=O)[C@H](Cc1ccc2ccccc2c1)NC(=O)[C@H](Cc1ccc2ccccc2c1)NC(=O)[C@H](N)Cc1ccc2ccccc2c1` [b B B ram, DβNal-βNal-βNal-[N-(3-aminopropyl)] amide], the “RAT IV ED50” value with growth hormone secretion (Table VI) was 100 µg. Moreover, at rat pituitary cells (setting [1]), the pEC50 was 7.82.
For the molecule `NCCCC(=O)N[C@H](Cc1ccc2ccccc2c1)C(=O)N[C@H](Cc1ccc2ccccc2c1)C(=O)N[C@@H](Cc1ccccc1)C(N)=O` [(Ab) b b F amide] (H-[GABA][d2Nal][d2Nal]F-NH2), in the test on growth hormone secretion (Table IV), the “RAT IV ED50” value is 10 µg. Besides, the negative-log EC50 (pEC50) at rat pituitary cells (setting [3]) is 8.51.
`CN(C(=O)C1CCNCC1)[C@H](Cc1ccc2ccccc2c1)C(=O)N[C@@H](Cc1ccc2ccccc2c1)C(=O)N[C@@H](Cc1ccccc1)C(=O)O` [(inip) nmb B F acid] (H-[Inp][dNMe2Nal][2Nal]F-OH): in the test with growth hormone secretion (Table IV), the “RAT IV ED50” value is 100 µg. For the same molecule, at rat pituitary cells (setting [3]), the pEC50 is 8.15.
In the same order, the values of `O=C(N[C@H](Cc1ccc2ccccc2c1)C(=O)N[C@H](Cc1ccc2ccccc2c1)C(=O)N[C@H](CO)Cc1ccccc1)C1CCNCC1` [(inip) b b Pol, (inip)-DβNal-DβNal-(L-Phenylalanol)] (H-[Inp][d2Nal][d2Nal][Phe(ol)]) are 5 µg and 9.70.
`C[C@@H](N)C(=O)N[C@H](Cc1ccc2ccccc2c1)C(=O)N[C@H](Cc1ccc2ccccc2c1)C(=O)N[C@@H](Cc1ccccc1)C(=O)N[C@@H](CCCCN)C(N)=O` [a b b F K amide] (H-[dA][d2Nal][d2Nal]FK-NH2): the “RAT IV ED50” value in the test on growth hormone secretion (Table III) was determined as 10 µg. For the same molecule, the negative-log EC50 (pEC50) at rat pituitary cells (setting [2]) is 8.46.
With `NCCNC(=O)[C@@H](Cc1ccc2ccccc2c1)NC(=O)[C@@H](Cc1ccc2ccccc2c1)NC(=O)C1CCNCC1` [(inip) b b tam] (H-[Inp]-[d2Nal]-[d2Nal]-Ethylenediamine), the “RAT IV ED50” value in the test with growth hormone secretion (Table IV) is 20 µg. For the same molecule, the pEC50 at rat pituitary cells (setting [3]) was 7.96.
Consider `NCCCCC(NC(=O)[C@H](Cc1ccccc1)NC(=O)[C@@H](Cc1ccc2ccccc2c1)NC(=O)C(Cc1ccc2ccccc2c1)NC(=O)CCCN)C(N)=O` (stereo partly drawn) [(Ab) b b F K amide, (4-aminobutanoyl)-DβNal-DβNal-Phe-Lys-amide] (H-[GABA][ξ2Nal][d2Nal]F[ξK]-NH2), for which the “RAT IV ED50” value in the test with growth hormone secretion (Table III) amounted to 1 µg. At rat pituitary cells (setting [2]), the pEC50 was 9.40.
In the same order, the values of `CN[C@H](Cc1ccc2ccccc2c1)C(=O)N[C@H](Cc1ccc2ccccc2c1)C(=O)N[C@@H](Cc1ccccc1)C(=O)N[C@@H](CCCCN)C(N)=O` [nmb b F K amide] (H-[dNMe2Nal][d2Nal]FK-NH2) are 1000 µg and below 7.00.
In the same order, the values of `NCCCC[C@H](NC(=O)[C@H](Cc1ccccc1)NC(=O)[C@@H](Cc1ccc2ccccc2c1)NC(=O)[C@@H](Cc1ccc2ccccc2c1)NC(=O)c1ccncc1)C(N)=O` [(pyc) b b F K amide] (Isonicotinoyl-[d2Nal][d2Nal]FK-NH2) are 200 µg and below 6.52.
In the same order, the values of `CN(C(=O)C1CCNCC1)[C@H](Cc1ccc2ccccc2c1)C(=O)N[C@H](Cc1ccc2ccccc2c1)C(=O)N[C@@H](Cc1ccccc1)C(=O)N1CCOCC1` [(inip) nmb b F mor] (H-[Inp][dNMe2Nal][d2Nal]F-Morpholide) are 10 µg and 9.10.
